Reference: PubChem BioAssay (NCI)
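Cells were grown in 96-well plates and exposed to each compound for 48 hours at five concentrations; endpoints were interpolated linearly between bracketing concentrations, or set to the highest concentration if not reached. Abbreviation: GI50, concentration required for 50% inhibition of growth. TGI: concentration producing complete growth inhibition.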

Assays:
Experiment in all cases: DTP human tumour cell line panel, 48 h
SW-620 colon = system: SW-620 colon
CAKI-1 renal = system: CAKI-1 renal
HCT-15 colon = system: HCT-15 colon
HT29 colon = system: HT29 colon
A549 NSCLC = system: A549 NSCLC
NCI-H460 lung = system: NCI-H460 lung
OVCAR-4 ovarian = system: OVCAR-4 ovarian
COLO 205 colon = system: COLO 205 colon
MOLT-4 leukemia = system: MOLT-4 leukemia
M14 melanoma = system: M14 melanoma

COc1ccc(Nc2ccc([N+](=O)[O-])cc2[N+](=O)[O-])cc1CN(CCCl)CCCl
GI50 (SW-620 colon): 2.11 µM
TGI (SW-620 colon): 13.4 µM
GI50 (CAKI-1 renal): 1.39 µM
TGI (CAKI-1 renal): 4.33 µM
GI50 (HCT-15 colon): 2.48 µM
TGI (HCT-15 colon): 9.93 µM
GI50 (HT29 colon): 2.44 µM
TGI (HT29 colon): 9.59 µM
GI50 (A549 NSCLC): 4.43 µM
TGI (A549 NSCLC): 30.7 µM
GI50 (NCI-H460 lung): 1.82 µM
TGI (NCI-H460 lung): 6.16 µM
GI50 (OVCAR-4 ovarian): 2.7 µM
TGI (OVCAR-4 ovarian): > 100 µM
GI50 (COLO 205 colon): 1.8 µM
TGI (COLO 205 colon): 7.84 µM
GI50 (MOLT-4 leukemia): 0.39 µM
TGI (MOLT-4 leukemia): 9.94 µM
GI50 (M14 melanoma): 2.72 µM
TGI (M14 melanoma): 19.6 µM

CCOC(=O)Cn1nnc2ccc(Nc3nc4ccccc4nc3-c3ccccc3)cc21
TGI (SW-620 colon): > 100 µM
TGI (CAKI-1 renal): > 100 µM
TGI (HCT-15 colon): > 100 µM
TGI (HT29 colon): > 100 µM
TGI (A549 NSCLC): > 100 µM
TGI (NCI-H460 lung): > 100 µM
TGI (OVCAR-4 ovarian): > 100 µM
TGI (COLO 205 colon): > 100 µM
TGI (MOLT-4 leukemia): > 100 µM
TGI (M14 melanoma): > 100 µM

CC(=O)O[C@H]1CC[C@@]2(C)C(=CC[C@@H]3[C@@H]2CC[C@]2(C)c4nc(Cl)ccc4C[C@@H]32)C1
TGI (SW-620 colon): > 100 µM
TGI (CAKI-1 renal): > 100 µM
TGI (HCT-15 colon): > 100 µM
TGI (HT29 colon): > 100 µM
TGI (A549 NSCLC): > 100 µM
TGI (NCI-H460 lung): > 100 µM
TGI (OVCAR-4 ovarian): > 100 µM
TGI (COLO 205 colon): > 100 µM
TGI (MOLT-4 leukemia): > 100 µM
TGI (M14 melanoma): > 100 µM

c1ccc(CC2COC(c3cccs3)=N2)cc1 (stereo not given)
TGI (SW-620 colon): > 100 µM
TGI (CAKI-1 renal): > 100 µM
TGI (HCT-15 colon): > 100 µM
TGI (HT29 colon): > 100 µM
TGI (A549 NSCLC): > 100 µM
TGI (NCI-H460 lung): > 100 µM
TGI (OVCAR-4 ovarian): > 100 µM
TGI (COLO 205 colon): > 100 µM
TGI (MOLT-4 leukemia): > 100 µM
TGI (M14 melanoma): > 100 µM

CCCCCCCCCCCC[N+](CCCCCCCCCCCC)=C1SCCS1
TGI (SW-620 colon): 10.1 µM
TGI (CAKI-1 renal): 26.1 µM
TGI (HCT-15 colon): 22.9 µM
TGI (HT29 colon): 12.8 µM
TGI (A549 NSCLC): 18 µM
TGI (NCI-H460 lung): 20.5 µM
TGI (OVCAR-4 ovarian): 11.3 µM
TGI (COLO 205 colon): 20.4 µM
TGI (MOLT-4 leukemia): 16.6 µM
TGI (M14 melanoma): 22.3 µM

Nc1ccc(Nc2cc(=O)[nH]c(=O)[nH]2)cc1Cl
TGI (SW-620 colon): > 100 µM
TGI (CAKI-1 renal): > 100 µM
TGI (HCT-15 colon): > 100 µM
TGI (HT29 colon): > 100 µM
TGI (A549 NSCLC): > 100 µM
TGI (NCI-H460 lung): > 100 µM
TGI (OVCAR-4 ovarian): > 100 µM
TGI (COLO 205 colon): > 100 µM
TGI (MOLT-4 leukemia): > 100 µM
TGI (M14 melanoma): > 100 µM

O=c1[nH]nc(-c2ccccc2)n1O
TGI (SW-620 colon): > 100 µM
TGI (CAKI-1 renal): > 100 µM
TGI (HCT-15 colon): > 100 µM
TGI (HT29 colon): > 100 µM
TGI (A549 NSCLC): > 100 µM
TGI (NCI-H460 lung): > 100 µM
TGI (OVCAR-4 ovarian): > 100 µM
TGI (COLO 205 colon): > 100 µM
TGI (MOLT-4 leukemia): > 100 µM
TGI (M14 melanoma): > 100 µM

O=C1CCCC/C1=C\c1ccc(Cl)c(Cl)c1
TGI (SW-620 colon): 50.7 µM
TGI (CAKI-1 renal): 37.6 µM
TGI (HCT-15 colon): 39.3 µM
TGI (HT29 colon): 55.1 µM
TGI (A549 NSCLC): > 100 µM
TGI (NCI-H460 lung): 42.6 µM
TGI (OVCAR-4 ovarian): 41 µM
TGI (COLO 205 colon): 96.6 µM
TGI (MOLT-4 leukemia): 43.8 µM
TGI (M14 melanoma): 42.2 µM

Nc1nc2c(C(=O)O)c3ccc([N+](=O)[O-])cc3c(=O)n2c2ccccc12
TGI (SW-620 colon): > 100 µM
TGI (CAKI-1 renal): > 100 µM
TGI (HCT-15 colon): 71.8 µM
TGI (HT29 colon): > 100 µM
TGI (A549 NSCLC): > 100 µM
TGI (NCI-H460 lung): > 100 µM
TGI (OVCAR-4 ovarian): > 100 µM
TGI (COLO 205 colon): > 100 µM
TGI (MOLT-4 leukemia): > 100 µM
TGI (M14 melanoma): 64.2 µM

CCc1ccc2c(c1)N(CC(C)CN(C)C)c1ccccc1S2 (stereo not given)
TGI (SW-620 colon): 14.6 µM
TGI (CAKI-1 renal): 18.3 µM
TGI (HCT-15 colon): 17.8 µM
TGI (HT29 colon): 12.5 µM
TGI (A549 NSCLC): 21.7 µM
TGI (NCI-H460 lung): 8.51 µM
TGI (OVCAR-4 ovarian): 17 µM
TGI (COLO 205 colon): 8.47 µM
TGI (MOLT-4 leukemia): 1.91 µM
TGI (M14 melanoma): 4.12 µM

CC(=O)OCC1OC(OCCCOP(=S)(OCCC#N)OCC2OC(n3ccc(N)nc3=O)C(OC(=O)c3ccccc3)C2OC(=O)c2ccccc2)C(OC(C)=O)C(OC(C)=O)C1OC(C)=O (stereo not given)
TGI (SW-620 colon): > 100 µM
TGI (CAKI-1 renal): > 100 µM
TGI (HCT-15 colon): > 100 µM
TGI (HT29 colon): > 100 µM
TGI (A549 NSCLC): > 100 µM
TGI (NCI-H460 lung): > 100 µM
TGI (OVCAR-4 ovarian): > 100 µM
TGI (COLO 205 colon): > 100 µM
TGI (MOLT-4 leukemia): > 100 µM
TGI (M14 melanoma): > 100 µM

C=C1CC[C@@H](C)[C@](C)(CCc2ccoc2)C/C=C\C=C/1C(=O)O
TGI (SW-620 colon): > 100 µM
TGI (CAKI-1 renal): > 100 µM
TGI (HCT-15 colon): > 100 µM
TGI (HT29 colon): > 100 µM
TGI (A549 NSCLC): > 100 µM
TGI (NCI-H460 lung): > 100 µM
TGI (OVCAR-4 ovarian): > 100 µM
TGI (COLO 205 colon): 49.4 µM
TGI (MOLT-4 leukemia): 95.8 µM
TGI (M14 melanoma): > 100 µM
